Reference: patent US11492347B2 (ENYO PHARMA, priority 2018, dated 2022)

Legend:
[1] = tested on: H1N1 (influenza A/New Caledonia/20/99); assay: microbe, parasite or virus in culture; assay type: cell-based; conditions: H1N1, A549, 48 h
[2] = biological target: T1, CISD2 Gene Product (NAF-1) (Homo sapiens, UniProt Q8N5K1); assay: Stability of Fe-S cluster binding of purified NEET protein (absorbance 458 nm); assay type: biochemical; conditions: NAF-1 20 μM, compound 60 μM; for Time (in minutes) to achieve 50% loss of bound cluster (Absorbance 458 nm): pH 6, 37° C., run time 500 minutes, vehicle control 310 or 210; for Residual cluster bound at end of experiment (Percentage Absorbance 458 nm at time zero): pH 6, at 500 minutes, vehicle control 3%
T1 sequence (Q8N5K1 57-135 limits assumed): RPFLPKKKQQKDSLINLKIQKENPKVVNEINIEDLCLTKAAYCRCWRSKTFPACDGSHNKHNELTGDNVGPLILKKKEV
Outline: (§1)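 Purified NEET protein (20 μM) with compound (60 μM, 1:3 molar ratio) in 100 mM Bis-Tris pH 6, 100 mM NaCl, 66 μM DMSO at 37 °C; 458 nm absorbance decay read every 5 min for 500 min (NAF-1) or 180 min (mitoNEET, Miner2). Outputs: time to 50% absorbance loss and residual % bound cluster, versus protein alone.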

[3] = biological target: T2, CISD1 Gene Product (mitoNEET) (Homo sapiens, UniProt Q9NZ45); assay: as above; assay type: biochemical; conditions: for Time (in minutes) to achieve 50% loss of bound cluster (Absorbance 458 nm) / Residual cluster bound at end of experiment (Percentage Absorbance 458 nm at time zero): mitoNEET 20 μM, compound 60 μM; for Time (in minutes) to achieve 50% loss of bound cluster (Absorbance 458 nm): pH 6, 37° C., run time 180 minutes, vehicle control 80; for Residual cluster bound at end of experiment (Percentage Absorbance 458 nm at time zero): pH 6, at 180 minutes, vehicle control 16%
T2 sequence (Q9NZ45 33-108 limits assumed): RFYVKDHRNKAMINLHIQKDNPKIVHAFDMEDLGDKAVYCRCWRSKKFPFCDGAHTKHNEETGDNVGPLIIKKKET
Outline: as §1

[4] = biological target: T3, CISD3 Gene Product (Miner2) (Homo sapiens, UniProt P0C7P0); assay: as above; assay type: biochemical; conditions: for Residual cluster bound at end of experiment (Percentage Absorbance 458 nm at time zero): CISD3 gene product 20 μM, pH 6, at 180 minutes, vehicle control 11%; for Residual cluster bound at end of experiment (Percentage Absorbance 458 nm at time zero) / Time (in minutes) to achieve 50% loss of bound cluster (Absorbance 458 nm): compound 60 μM; for Time (in minutes) to achieve 50% loss of bound cluster (Absorbance 458 nm): Miner2 20 μM, pH 6, 37° C., run time 180 minutes, vehicle control 60; for Stabiliser or destabiliser of Fe-S cluster binding by CISD3 Gene Product (Miner2): time to 50% cluster loss changed by more than 25% compared to the Control sample, at the concentrations tested
T3 sequence (P0C7P0 15-127): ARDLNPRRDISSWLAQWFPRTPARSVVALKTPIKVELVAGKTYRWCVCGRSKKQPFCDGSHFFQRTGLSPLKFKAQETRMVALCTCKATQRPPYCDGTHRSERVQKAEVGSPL
Outline: as §1

SMILES	IC50 [1]	Time (in minutes) to achieve 50% loss of bound cluster (Absorbance 458 nm) [2]	Residual cluster bound at end of experiment (Percentage Absorbance 458 nm at time zero) [2]	Time (in minutes) to achieve 50% loss of bound cluster (Absorbance 458 nm) [3]	Residual cluster bound at end of experiment (Percentage Absorbance 458 nm at time zero) [3]	Residual cluster bound at end of experiment (Percentage Absorbance 458 nm at time zero) [4]	Time (in minutes) to achieve 50% loss of bound cluster (Absorbance 458 nm) [4]	Stabiliser or destabiliser of Fe-S cluster binding by CISD3 Gene Product (Miner2) [4]	Stabiliser or destabiliser of Fe-S cluster binding by CISD1 Gene Product (mitoNEET) ([3]; time to 50% cluster loss changed by more than 25% compared to the Control sample, at the concentrations tested)
CC1(C)Cc2c(sc(NC(=O)c3ccc(N4CCOCC4)cc3)c2C(=O)O)C(C)(C)C1 [Compound #36, 5,5,7,7-Tetramethyl-2-[(4-morpholinobenzoyl)amino]-4,6-dihydrobenzothiophene-3-carboxylic acid]	40.1 nM	210 (210) minutes	30% (3%)	98 (80) minutes	36 % (16%)	39% (11%)	80 (60) minutes	Stabilisers	–
CC1(C)CCc2sc(NC(=O)c3ccccc3)c(C(=O)O)c21 [Compound #37, 2-Benzamido-4,4-dimethyl-5,6-dihydrocyclopenta[b]thiophene-3-carboxylic acid]	196 nM	280 (210) minutes	3% (3%)	85 (80) minutes	23% (16%)	37% (11%)	75 (60) minutes	Stabilisers	–
COC1CN(c2ccc(C(=O)Nc3sc4c(c3C(=O)O)CC(C)(C)CC4(C)C)cc2)C1 [Compound #58, 2-[[4-(3-Methoxyazetidin-1-yl)benzoyl]amino]-5,5,7,7-tetramethyl-4,6-dihydrobenzothiophene-3-carboxylic acid]	0.9 nM	280 (310) minutes	39% (3%)	100 (80) minutes	36% (16%)	44% (11%)	125 (60) minutes	Stabilisers	stabilisers
